Experimental data from patent US20210252008A1, “BIARYL COMPOSITIONS AND METHODS FOR MODULATING A KINASE CASCADE” (Athenex, Inc., priority 2004, published 2021).

Tests used:
[1] = test system: HT29 cell line (NCI standard human colon carcinoma cell line); experiment: BrdU cell growth inhibition, HT-29; assay type: cell-based; settings: HT29 cells
Experimental: (§1) The GI50s for several of the compounds of the invention were assayed as described herein.
The HT29 cell line is a NCI standard human colon carcinoma cell line. […] HT29 cells were routinely cultured in McCoy's 5A medium supplemented with Fetal Bovine Serum (1.5% v/v) and L-glutamine (2 mM).
(§2) In the BrdU Assay for cell growth inhibition, quantitation of cell proliferation was based on the measurement of BrdU incorporation during DNA synthesis. The Cell Proliferation ELISA BrdU assay kit (colorimetric) was obtained from Roche Applied Science and performed as per vendor instructions.
(§3) The growth inhibition (GI) is determined from the formula GI=(T0-Tn×100/T0−CONn) where T0 is the BrdU growth of untreated cells at time “0”, Tn is the BrdU growth of treated cells at day “n” and CONn is the control BrdU growth of control cells at day “n”. The GI50 was extrapolated and the data plotted using XL-Fit 4.0 software.
(§4) For 96 well culture plate experiments, c-Src 3T3 medium was supplemented with 10 mM HEPES buffer. HT-29 cells were seeded in standard tissue culture 96-well plates and c-Src 3T3 cells were seeded in 96-well plates coated with Poly-D-lysine (BIOCOAT™). To increase CO2 diffusion, c-Src 3T3 96-well plates were incubated with their lids raised by 2 mm using sterile rubber caps.
(§5) Seeded 96 well plates were allowed to attach overnight for 18-24 hours, either at 37° C. and 5% CO2 for HT-29 or at 37° C. and 10% CO2 for c-Src 3T3. Approx 18-24 hours after seeding, the initial growth of cells (To) was determined for untreated cells using the BrdU assay. Samples were reconstituted in DMSO at 20 mM and intermediate dilutions made using DMEM containing 10% FBS. The final assay concentrations were 1.5% for FBS and 0.05% for DMSO. Samples were added as 10 μL aliquots in triplicate and plates were incubated as above for 72 hours. Negative (vehicle) and positive controls (e.g., AZ (KX-328)) were included. Plates were assayed for BrdU and the data analyzed as above for GI50. […]

[2] = test system: c-Src 3T3 cells (NIH 3T3 transfected with human c-Src 527F); experiment: BrdU cell growth inhibition, c-Src 3T3; assay type: cell-based, mouse
Experimental: as §1
The c-Src 3T3 is a mouse fibroblast NIH 3T3 normal cell line that has been transfected with a point-mutant of human c-Src wherein tyrosine 527 has been converted to a phenylalanine. This mutation results in “constitutively active” c-Src because phosphorylation on tyrosine 527 results in auto-inhibition of Src by having it fold back on its own SH2 domain. With a Phe there, this phosphorylation can't occur and therefore auto-inhibition can't occur. Thus, the always fully active mutant Src then converts the normal mouse fibroblasts into rapidly growing tumor cells. Since the hyperactive Src is the main factor driving growth in these cells (particularly when cultured under low growth serum conditions), compounds active in blocking this growth are thought to work by blocking Src signaling (e.g. as a direct Src kinase inhibitor or as an inhibitor acting somewhere else in the Src signaling cascade). The cells were routinely cultured in DMEM supplemented with Fetal Bovine Serum (2.0% v/V), L-glutamine (2 mM) and Sodium Pyruvate (1 mM).
as §2, §3, §4
as §5, with “Negative (vehicle) and positive controls (e.g., AZ (KX-328)) were included.” left out

[3] = test system: Chinchillas, noise-induced hearing loss; experiment: Protection against noise-induced hearing loss; assay type: in vivo; settings: chinchilla; round window application; 4 kHz band noise 105 dB SPL four hours; day 1, 7, 21; in most cases
Experimental: Chinchillas (N=6) were used in studies of noise-induced hearing loss. The animals' hearing sensitivity was measured using standard electrophysical techniques before the experimental manipulation. […] Animals were anesthetized, the auditory bullae were opened, and the left and right cochleas were visualized. The round window leading to the scala tympani of the cochlea was used as the access point for drug application. Animals were treated with KX1-004, KX1-141, KX1-329 or KX2-328 (a non-ATP competitive inhibitor from Astrazeneca), emulsified in DMSO, in […] of saline solution, which was placed on the round window of one ear. A control solution of 3 mM DMSO in […] of saline solution was placed on the round window of the other ear. The solution was allowed to set on the round window for 30 minutes, then the auditory bullae were closed. […] Following the noise exposure, the animals' hearing was tested at day 1, day 7, and day 21 to determine evoked potential threshold shifts. Permanent threshold shift was assessed at day 21.
FIGS. 10-12 show the average threshold shifts for animals treated with KX1-004, KX1-141, KX1-329 or KX2-328.

[4] = test system: osteoclast precursors derived from spleen cells; experiment: Effect on osteoclast formation; assay type: cell-based; settings: 5 days, RANKL and M-CSF
Experimental: To determine the effect of the compounds on osteoclast formation, the compounds were added to osteoclast precursors derived from spleen cells. For the generation of spleen-derived osteoclasts, spleen cells comprising osteoclast precursors were treated with Rapamycin, KX1-141, KX2-328 (Astrazeneca compound), or KX1-329 for 5 days in the presence of receptor activator of nuclear factor-KB ligand (RANKL) and macrophage colony-stimulating factor (M-CSF). In in vitro murine or human osteoclast models, soluble RANKL enables osteoclast precursors to differentiate in the presence of M-CSF (Quinn, et al.; 1998, Endocrinology, 139, 4424-4427; Jimi, et al.; 1999, J. Immunol., 163, 434-442). The untreated control cells were incubated in the presence of RANKL and M-CSF alone. Rapamycin was used as a positive control for the inhibition of osteoclast formation.
For generating spleen-derived osteoclasts, spleen cells were treated as described above. […] Cells were then stained with the osteoclast marker, tartrate-resistant acid phosphatase (TRAP) to visualize differentiated cells. The numbers of TRAP-positive osteoclasts were counted.

osteoclasts = experiment: Effect on osteoclast survival; assay type: cell-based; settings: 48 hours, RANKL and M-CSF
Experimental: To determine the effect of the compounds on osteoclast survival, osteoclasts were treated with Rapamycin, KX1-141, KX2-328, or KX1-329 for 48 hours in the presence of RANKL and M-CSF. The untreated, control cells were incubated in the presence of RANKL and M-CSF alone. Rapamycin was used as a positive control for the inhibition of osteoclast survival.
As described above, osteoclasts were treated with Rapamycin, KX1-141, KX2-328, or KX1-329 for 48 hours in the presence of RANKL and M-CSF. […] Cells were then stained with TRAP and the number of TRAP-positive osteoclasts were counted.

[5] = test system: osteoclasts on bone slices; experiment: Effect on bone resorption in vitro (bone slices); assay type: cell-based
Experimental: To determine the effects of the compounds on osteoclast formation on bone slices, the bone slices were treated with Rapamycin, KX1-141, KX2-328, or KX1-329. […] The number of osteoclasts on the bone slices were counted.
During the resorption of bone, osteoclasts form resorption pits. To determine the effects of the compounds on resorption pit formation on bone slices, the bone slices were treated with Rapamycin, KX1-141, KX2-328, or KX1-329, as described above. […] The number of resorption pits on the bone slices was determined.
Bone slices were treated as indicated above. […] The bone slices were then stained with TRAP.
Bone slices were treated as indicated above. […] The bone slices were stained with Toluidine Blue to reveal resorption pits, which are indicators of osteoclast-mediated resorption of bone.

[6] = test system: Guinea pigs, cisplatin-induced hearing loss; experiment: Protection against cisplatin-induced hearing loss; assay type: in vivo; settings: guinea pig; subcutaneous, prior to cisplatin; FIG. 15
Experimental: The effects of high level noise and ototoxic drugs, such as cisplatin or the class of aminoglycosides, share several common features in the inner ear. First, the noise and/or drugs alter the free radi cal/anti oxidant levels in the cochlea (inner ear). […] Guinea pigs (N=7) were used in studies of cisplatin-induced hearing loss. The animals' hearing sensitivity was measured using standard electrophysical techniques before the experimental manipulation. […] Animals were anesthetized and treated with cisplatin. Subsequently, the animals' hearing was tested to determine evoked potential threshold shifts.
Animals were treated subcutaneously with KX1-004 prior to the cisplatin-induced hearing loss.

O=C(Cc1ccc(-c2ccccc2)c[n+]1[O-])NCc1cccc(F)c1 [KX1-329 N-oxide]
GI50 (HT29) [1]: inactive (HT-29)
GI50 (c-Src 3T3) [2]: inactive (c-Src 3T3);

O=C(Cc1ccc(-c2ccccc2)cn1)NCc1cccc(F)c1 [KX1-329]
average dB threshold shifts of treated ears vs control [3]: lower
number of TRAP-positive osteoclasts vs untreated control (formation) ([4]; FIG. 17): reduced the number of TRAP-positive osteoclasts
formation of osteoclasts vs untreated control ([4]; stained, FIG. 16): inhibited the formation of osteoclasts
survival of osteoclasts vs untreated control (osteoclasts; FIG. 18): inhibited the survival of osteoclasts
number of TRAP-positive osteoclasts vs untreated control (survival) (osteoclasts; FIG. 19): reduced the number of TRAP-positive osteoclasts
number of osteoclasts on the bone slices vs untreated control ([5]; FIG. 20A): reduced the number of osteoclasts on the bone slices
number of resorption pits on the bone slices vs untreated control ([5]; FIG. 20B): reduced the number of resorption pits
number of TRAP-positive osteoclasts on the bone slices vs untreated control ([5]; TRAP stain, FIG. 21A): reduced the number of TRAP-positive osteoclasts
number of resorption pits on the bone slices vs untreated control ([5]; Toluidine Blue stain, FIG. 21B): reduced the number of resorption pits

CN1CCN(Cc2ccc(-c3ccc(CC(=O)NCc4cccc(F)c4)nc3)cc2)CC1 [KX2-376]
GI50 ([2]; NIH3T3): > 16 nM

CCOc1ccc(-c2ccc(CC(=O)NCc3cccc(F)c3)nc2)c(OCCN2CCN(C)CC2)c1 [KX2-384]
GI50 (HT29) [1]: inactive (HT-29)

CC(C)COc1cc(F)cc(CNC(=O)Cc2ccc(-c3ccc(OCCN4CCCCC4)cc3)cn2)c1 [KX2-386]
GI50 (HT29) [1]: inactive (HT-29)

CC(C)COc1cc(F)cc(CNC(=O)Cc2ccc(-c3ccc(OCCN4CCOCC4)cc3)cn2)c1 [KX2-387]
GI50 (c-Src 3T3) [2]: inactive (c-Src 3T3);

CCOc1ccc(-c2ccc(CC(=O)NCc3cccc(F)c3)nc2)c(OCCN2CCCCC2)c1 [KX2-389]
GI50 (c-Src 3T3) [2]: Inactive (c-Src 3T3);

KX1-004
average dB threshold shifts of treated ears vs control [3]: lower
protection against cisplatin-induced hearing loss (median CAP thresholds) [6]: protected against cisplatin-induced hearing loss
